Measured values from patent US9868734B2, “Conjugate of benzofuranone and indole or azaindole, and preparation and uses thereof” (Luoda Biosciences, Inc., priority 2013, dated 2018).
Read-outs that look alike come from different tables or passages of the source.

Tests used:
[1] = system: human hepatocellular carcinoma cell line HepG-2; assay: MTT assay, inhibition of tumor cell growth (HepG2); type: cell-based; conditions: 72 hours incubation, read-out: IC50 on the tumor cells HepG2
Experimental: (§1) human hepatocellular carcinoma cell line HepG-2, human lung adenocarcinoma epithelial cell line A549
(§2) Tumor cells were seeded in RPM11640 medium containing 10% calf serum, incubated at 37° C., 5% CO2 in CO2 incubator, and passaged every 2-3 days. Cells at logarithmic growth phase were used for this experiment.
(§3) The cells at logarithmic growth phase were formulated into suspension. The cell viability by trypan blue staining was more than 98%. The cell suspension was divided into several groups: 1 as blank control group (cell suspension plus solvent DMSO); and 2 as experimental groups (cell suspension plus compounds to be tested).
(§4) The drugs were formulated into a stock solution in DMSO, and the concentration of the stock solution was 20 mmol (used within 4 hours). In the experiment, the work solution of the drugs was diluted with RPMI1640 medium containing 10% calf serum under aseptic condition, to a final concentration of […]. The drug concentrations were increased by 2 times (1.25-20 μM).
(§5) The cells in logarithmic growth phase were selected, centrifuged, counted, and formulated into a cell suspension (2.5×10^4/ml) with RPMI1640 medium containing 10% calf serum. The cell suspension were inoculated into 96-well plates at a density of 5000 cells/200 μl per well, incubated for 24 hours at 37° C., 5% CO2. According to the above concentration of the drug, the cells were inoculated to 6 groups (including one control group), with 8 wells per group. After incubating for 72 hours, the viability of cells was measured by MTT assay. The absorbance value (A) was measured with detection wavelength at 540 nm, reference wavelength at 630 nm. The inhibitory rate (I) was calculated by the following equation, where T was the absorbance value of the experimental groups, and C was the absorbance value of the blank control group: I=(1−T/C)×100%
(§6) Equation of regression line was drawn from concentration-inhibitory rate curve, from which the IC50 of tested sample was calculated.

[2] = system: human lung adenocarcinoma epithelial cell line A549; assay: MTT assay, inhibition of tumor cell growth (A549); type: cell-based; conditions: 72 hours incubation, read-out: IC50 on the tumor cells A549
Experimental: as §1, §2, §3, §4, §5, §6

| Structure (SMILES) | IC50 [1] [µM] | IC50 [2] [µM] | IC50 ([1]; Homo sapiens) [µM] | IC50 ([2]; Homo sapiens) [µM] |
| --- | --- | --- | --- | --- |
| CON=C1C(=C2C(=O)N(Cc3ccccc3)c3ccncc32)Oc2ccccc21 [Compound 74] | 19 ± 1.1 | 9.4 ± 0.6 |  |  |
| O=C1Nc2ncccc2/C1=C1/Oc2ccccc2C1=O [Compound 75, 1′-oxo-7-azaindirubin] |  |  | 10 ± 1.4 | 8 ± 1.2 |
| CCN1C(=O)C(=C2Oc3c(Cl)cccc3C2=O)c2cccnc21 [Compound 79] | 31.5 ± 2.5 | 17.4 ± 1.7 |  |  |
| CC(C)N1C(=O)C(=C2Oc3ccccc3C2=O)c2cc(Cl)cnc21 [Compound 82] | 18 ± 2.3 | 16 ± 2 |  |  |
| CCN1C(=O)C(=C2Oc3c(Cl)cccc3C2=O)c2cccnc21 [Compound 85] | 18.5 ± 1.5 | 25 ± 2.7 |  |  |
| CC(C)N1C(=O)C(=C2Oc3ccccc3C2=NO)c2cc(Cl)cnc21 [Compound 88] | 80.1 ± 1.5 | 87 ± 2.1 |  |  |
| CON=C1C(=C2C(=O)N(Cc3ccccc3)c3ncccc32)Oc2ccccc21 [Compound 90] | 30.2 ± 1.5 | 29 ± 1.8 |  |  |
| O=C1Nc2ccc(F)cc2C1=C1C(=O)Oc2ccccc21 [Compound 92] | 15.2 ± 1.2 | 31.7 ± 1.5 |  |  |
| CN1C(=O)C(=C2C(=O)Oc3ccccc32)c2ccc(Cl)cc21 [Compound 96] | 14.2 ± 1.3 | 17.2 ± 1.6 |  |  |
| CCN1C(=O)C(=C2C(=O)Oc3ccccc32)c2ccccc21 [Compound 100] | 9.2 ± 2 | 7 ± 1.4 |  |  |
| CC(C)N1C(=O)C(=C2C(=O)Oc3ccccc32)c2ccccc21 [Compound 106] | 3.8 ± 1.5 | 35.5 ± 2.9 |  |  |
| O=C1Oc2ccccc2C1=C1C(=O)N(C2OC(CO)C(O)C(O)C2O)c2ccccc21 (stereo not drawn) [Compound 112] | > 100 | 90.1 ± 4.5 |  |  |
| COc1ccc2c(c1)C(=C1C(=O)N(Cc3ccccc3)c3ccccc31)C(=O)O2 [Compound 116] | 7.4 ± 1.7 | 3.7 ± 0.6 |  |  |
| O=C1Oc2ccccc2C1=C1C(=O)N(Cc2ccccc2)c2ccc(Cl)cc21 [Compound 119] | 27.5 ± 1.3 | 39.6 ± 1.7 |  |  |
| O=C1Oc2ccccc2C1=C1C(=O)N(Cc2ccccc2)c2cc(Cl)ccc21 [Compound 120] | 43 ± 2.2 | 49.1 ± 2.6 |  |  |
| O=C1Nc2ccncc2C1=C1C(=O)Oc2ccccc21 [Compound 121] | 15.6 ± 1.2 | 11.6 ± 1.1 |  |  |
| CN1C(=O)C(=C2C(=O)Oc3ccccc32)c2cnccc21 [Compound 123] | 9.1 ± 1 | 5.8 ± 0.8 |  |  |
| CCN1C(=O)C(=C2C(=O)Oc3ccccc32)c2cnccc21 [Compound 127, N-ethyl-1′-oxo-5-azaisoindigo] | 8.4 ± 1.3 | 4.7 ± 0.9 |  |  |
| CC(C)N1C(=O)C(=C2C(=O)Oc3ccccc32)c2cnc(F)cc21 [Compound 130] | 19.6 ± 1.3 | 28.5 ± 1.6 |  |  |
| O=C1Oc2ccccc2C1=C1C(=O)N(Cc2ccccc2)c2ccncc21 [Compound 134] | 26 ± 2.1 | 11.5 ± 1.2 |  |  |
| O=C1Nc2nc(Cl)ccc2C1=C1C(=O)Oc2ccccc21 [Compound 138] | 25.8 ± 1.7 | 12.1 ± 1.4 |  |  |
| Cc1cccc2c1OC(=O)C2=C1C(=O)N(C)c2ncccc21 [Compound 140] | 7.3 ± 0.8 | 1.9 ± 0.8 |  |  |
| CCN1C(=O)C(=C2C(=O)Oc3ccccc32)c2cc(F)cnc21 [Compound 146] | 35.2 ± 2.3 | 26.3 ± 2.1 |  |  |
| CC(C)N1C(=O)C(=C2C(=O)Oc3ccc(F)cc32)c2cccnc21 [Compound 150] | 5.6 ± 0.6 | 7.9 ± 1.3 |  |  |
| O=C1Oc2ccccc2C1=C1C(=O)N(Cc2ccccc2)c2ncccc21 [Compound 152] | 42.3 ± 1.8 | 18.2 ± 1.2 |  |  |
| CCN1C(=O)/C(=C2\Nc3ccccc3C2=O)c2ccccc21 [Compound 154, 1-ethyl-indirubin, reference compound] |  |  | 7.1 ± 0.7 | 19 ± 1.1 |
| CCN1C(=O)/C(=C2\Nc3ccccc3\C2=N/O)c2ccccc21 [Compound 155, 1-ethyl-indirubin-3′-oxime, reference compound] |  |  | 7 ± 1.3 | 30.3 ± 1.5 |
